≈ marks a conversion by molar mass, not a printed value.

In assay [1] the test system is Enterococcus faecalis ATCC 19433. Description: Inhibition of bacterial growth in culture, spiral gradient endpoint assay (MIC). Type of assay: cell-based. Particulars: Enterococcus faecalis, ATCC 19433 /, 16 h, read-out: MIC E. faecalis, Mueller-Hinton II agar, 16 h at 37° C. From the text: J. Microbiol. Meths. […] Int. J. Exp. Clin. Chemother. […] Adv.
Assay [2] relates to Escherichia coli D21f2tolC. Description: microbe, parasite or virus in culture. Particulars: 16 h, read-out: MIC E. coli D21f2tolC, Mueller-Hinton II agar, 16 h at 37° C.
The test system of assay [3] is Staphylococcus aureus ATCC 12600. Put plainly: Inhibition of bacterial growth in culture, spiral gradient endpoint assay (MIC). Particulars: Staphylococcus aureus, ATCC12600, 16 h, read-out: MIC S. aureus 12600, Mueller-Hinton II agar, 16 h at 37° C.

Consider `CCC1=C(O)C(CC)(CC)C(=O)C(C(=O)C2CC2c2ccc(Oc3ccc(F)cc3)cc2C(F)(F)F)=C1O` (stereo not drawn) [Example 72, 4,6,6-triethyl-2-(2-(4-(4-fluorophenoxy)-2-(trifluoromethyl)phenyl)cyclopropanecarbonyl)-3,5-dihydroxycyclohexa-2,4-dienone], for which the MIC was > 40 µg/mL in assay [1], 1.6 µg/mL (≈ 3 µM) in assay [2] and 6.5 µg/mL (≈ 12.2 µM) in assay [3].
For the compound `O=C(/C=C/c1ccc(Oc2ccc(F)cc2)cc1)c1c(O)cc(O)cc1O` [Example 11, (E)-3-(4-(4-fluorophenoxy)phenyl)-1-(2,4,6-trihydroxyphenyl)prop-2-en-1-one], the values for the MIC in assay [1], in assay [2] and in assay [3] were > 40 µg/mL, 5.9 µg/mL (≈ 16.1 µM) and 17 µg/mL (≈ 46.4 µM), respectively.
For `CCCC1=C(O)C(CCC)(CCC)C(=O)C(C(=O)C2CC2c2ccc(Oc3ccc(F)cc3)cc2C)=C1O` (stereo not drawn) [Example 71, 2-(2-(4-(4-fluorophenoxy)-2-methylphenyl)cyclopropanecarbonyl)-3,5-dihydroxy-4,6,6-tripropylcyclohexa-2,4-dienone], in that order: 2.1 µg/mL (≈ 4.03 µM), 2.3 µg/mL (≈ 4.42 µM) and 0.9 µg/mL (≈ 1.73 µM).
In the case of `O=C(c1c(O)cc(O)cc1O)C1CC1c1ccc(Cl)cc1C(F)(F)F` (stereo not drawn) [Example 47, (2-(4-chloro-2-(trifluoromethyl)phenyl)cyclopropyl)(2,4,6-trihydroxyphenyl)methanone], the results for the MIC in assay [1], in assay [2] and in assay [3] were 9.6 µg/mL (≈ 25.8 µM), 4.8 µg/mL (≈ 12.9 µM) and 9.6 µg/mL (≈ 25.8 µM), respectively.
On to `O=C(c1c(O)cc(O)cc1O)C1CC1c1ccc(Oc2ccc(F)cc2)cc1C(F)(F)F` (stereo not drawn) [Example 44, (2-(4-(4-fluorophenoxy)-2-(trifluoromethyl)phenyl)cyclopropyl)(2,4,6-trihydroxyphenyl)methanone], for which the MIC in assay [1] was 1.8 µg/mL (≈ 4.01 µM); in assay [2], 1.5 µg/mL (≈ 3.35 µM); in assay [3], 1.5 µg/mL (≈ 3.35 µM).
With `Cc1cc(Oc2ccccc2)ccc1CCC(=O)c1c(O)cc(O)cc1O` [Example 33, 3-(2-methyl-4-phenoxyphenyl)-1-(2,4,6-trihydroxyphenyl)propan-1-one], the MIC in assay [1] amounted to 7.5 µg/mL (≈ 20.6 µM); in assay [2] it was 1.6 µg/mL (≈ 4.39 µM); in assay [3] it was 4.6 µg/mL (≈ 12.6 µM).
`CCCC1(CCC)C(=O)C(C(=O)C2CC2c2ccc(Oc3ccccc3)cc2)=C(O)C=C1O` (stereo not drawn) [Example 60, 3,5-dihydroxy-2-(2-(4-phenoxyphenyl)cyclopropanecarbonyl)-6,6-dipropylcyclohexa-2,4-dien-1one]: the MIC in assay [1] was > 40 µg/mL; in assay [2], 3.9 µg/mL (≈ 8.73 µM); in assay [3] it was 10 µg/mL (≈ 22.4 µM).
For `CCCC1=C(O)C(CCC)(CCC)C(=O)C(C(=O)CCc2ccc(Oc3ccc(F)cc3)cc2C)=C1O` [Example 69, 2-(3-(4-(4-fluorophenoxy)-2-methylphenyl)propanoyl)-3,5-dihydroxy-4,6,6-tripropylcyclohexa-2,4-dienone], in that order: 1.4 µg/mL (≈ 2.75 µM), 1.1 µg/mL (≈ 2.16 µM) and 1.1 µg/mL (≈ 2.16 µM).
The matching figures for `O=C(c1c(O)cc(O)cc1O)C1CC1c1ccc(Oc2ccc(F)cc2F)cc1` (stereo not drawn) [Example 43, (2-(4-(2,4-difluorophenoxy)phenyl)cyclopropyl)(2,4,6-trihydroxyphenyl) methanone]: 8.4 µg/mL (≈ 21.1 µM), 2.8 µg/mL (≈ 7.03 µM) and 6.6 µg/mL (≈ 16.6 µM).
Turning to `CC1=C(O)C(C)(C)C(=O)C(C(=O)C2CC2c2ccc(Cl)cc2C(F)(F)F)=C1O` (stereo not drawn) [Example 76, 2-(2-(4-chloro-2-(trifluoromethyl)phenyl)cyclopropanecarbonyl)-3,5-dihydroxy-4,6,6-trimethylcyclohexa-2,4-dienone], the MIC in assay [1] is > 40 µg/mL; in assay [2], 3.1 µg/mL (≈ 7.47 µM); in assay [3] it was 12 µg/mL (≈ 28.9 µM).
As to `CCCC1=C(O)C(CCC)(CCC)C(=O)C(C(=O)C2CC2c2ccc(Oc3ccc(F)cc3)cc2)=C1O` (stereo not drawn) [Example 66, 2-(2-(4-(4-fluorophenoxy)phenyl)cyclopropanecarbonyl)-3,5-dihydroxy-4,6,6-tripropylcyclohexa-2,4-dienone], the MIC in assay [1] turned out to be 0.55 µg/mL (≈ 1.09 µM); in assay [2], 0.72 µg/mL (≈ 1.42 µM); in assay [3] it was 0.16 µg/mL (≈ 0.316 µM).
Regarding `Cc1cc(Oc2ccccc2)ccc1CCC(=O)c1c(O)cc(O)c(Cl)c1O` [Example 41, 1-(3-chloro-2,4,6-trihydroxyphenyl)-3-(2-methyl-4-phenoxyphenyl)propan-1-one], the MIC in assay [1] was found to be 19 µg/mL (≈ 47.6 µM); in assay [2] it was 9.4 µg/mL (≈ 23.6 µM); in assay [3] it was 19 µg/mL (≈ 47.6 µM).
Turning to `O=C(/C=C/c1ccc(C(F)(F)F)cc1C(F)(F)F)c1c(O)cc(O)cc1O` [Example 9, (E)-3-(2,4-bis(trifluoromethyl)phenyl)-1-(2,4,6-trihydroxyphenyl)prop-2-en-1-one], the MIC in assay [1] turned out to be 16 µg/mL (≈ 40.8 µM); in assay [2], 8 µg/mL (≈ 20.4 µM); in assay [3] it was 13 µg/mL (≈ 33.1 µM).
With `Cc1cc(Oc2ccc(F)cc2)ccc1C1CC1C(=O)c1c(O)cc(O)cc1O` (stereo not drawn) [Example 36, (2-(4-(4-fluorophenoxy)-2-methylphenyl)cyclopropyl)(2,4,6-trihydroxyphenyl)methanone], the MIC in assay [1] came out at 4.4 µg/mL (≈ 11.2 µM); in assay [2], 1.7 µg/mL (≈ 4.31 µM); in assay [3], 2.4 µg/mL (≈ 6.09 µM).
Take `O=C(/C=C/c1ccc(C(F)(F)F)cc1)c1c(O)cc(O)cc1O` [Example 14, (E)-3-(4-(trifluoromethyl)phenyl)-1-(2,4,6-trihydroxyphenyl)prop-2-en-1-one]: the MIC in assay [1] was 32 µg/mL (≈ 98.7 µM); in assay [2], 20 µg/mL (≈ 61.7 µM); in assay [3] it was 32 µg/mL (≈ 98.7 µM).
As to `Cc1ccc(C2CC2C(=O)c2c(O)cc(O)cc2O)c(C)c1` (stereo not drawn) [Example 20, (2-(2,4-dimethylphenyl)cyclopropyl)(2,4,6-trihydroxyphenyl)methanone], the values for the MIC in assay [1], in assay [2] and in assay [3] were 2.4 µg/mL (≈ 8.04 µM), 1.7 µg/mL (≈ 5.7 µM) and 2.1 µg/mL (≈ 7.04 µM), respectively.
For `CCCC1=C(O)C(CCC)(CCC)C(=O)C(C(=O)C2CC2c2ccc(Cl)cc2)=C1O` (stereo not drawn) [Example 79, 2-(2-(4-chlorophenyl)cyclopropanecarbonyl)-3,5-dihydroxy-4,6,6-tripropylcyclohexa-2,4-dienone], in that order: 0.61 µg/mL (≈ 1.42 µM), 0.15 µg/mL (≈ 0.348 µM) and 0.27 µg/mL (≈ 0.626 µM).
On to `Cc1ccc(C2CC2C(=O)c2c(O)cc(O)cc2O)cc1` (stereo not drawn) [Example 19, (2-(p-tolyl)cyclopropyl)(2,4,6-trihydroxyphenyl)methanone], for which the values for the MIC in assay [1], in assay [2] and in assay [3] were > 40 µg/mL, 13 µg/mL (≈ 45.7 µM) and 20 µg/mL (≈ 70.3 µM), respectively.
For `CCOc1ccc(C2CC2C(=O)c2c(O)cc(O)cc2O)cc1` (stereo not drawn) [Example 21, (2-(4-ethoxyphenyl)cyclopropyl)(2,4,6-trihydroxyphenyl)methanone], the MIC in assay [1] was > 40 µg/mL; in assay [2], 20 µg/mL (≈ 63.6 µM); in assay [3] it was 16 µg/mL (≈ 50.9 µM).
In the case of `Cc1cc(Oc2ccc(F)cc2)ccc1CCC(=O)c1c(O)cc(O)cc1O` [Example 34, 3-(4-(4-fluorophenoxy)-2-methylphenyl)-1-(2,4,6-trihydroxyphenyl)propan-1-one], the values for the MIC in assay [1], in assay [2] and in assay [3] were 5.2 µg/mL (≈ 13.6 µM), 1.1 µg/mL (≈ 2.88 µM) and 3.6 µg/mL (≈ 9.41 µM), respectively.
With `O=C(CCc1ccc(Oc2ccccc2)cc1C(F)(F)F)c1c(O)cc(O)cc1O` [Example 16, 3-(4-phenoxy-2-(trifluoromethyl)phenyl)-1-(2,4,6-trihydroxyphenyl)propan-1-one], the MIC worked out at 1.8 µg/mL (≈ 4.3 µM) in assay [1], 1.3 µg/mL (≈ 3.11 µM) in assay [2] and 1.1 µg/mL (≈ 2.63 µM) in assay [3].
As for `CCC1=C(O)C(CC)(CC)C(=O)C(C(=O)C2CC2c2ccc(Cl)cc2C(F)(F)F)=C1O` (stereo not drawn) [Example 84, 2-(2-(4-chloro-2-(trifluoromethyl)phenyl)cyclopropanecarbonyl)-4,6,6-triethyl-3,5-dihydroxycyclohexa-2,4-dienone], the MIC is 2.1 µg/mL (≈ 4.6 µM) in assay [1], 0.44 µg/mL (≈ 0.963 µM) in assay [2] and 1.3 µg/mL (≈ 2.85 µM) in assay [3].
The matching figures for `CCC1=C(O)C(CC)(CC)C(=O)C(C(=O)C2CC2c2ccc(C(F)(F)F)cc2)=C1O` (stereo not drawn) [Example 90, 4,6,6-triethyl-3,5-dihydroxy-2-(2-(4-(trifluoromethyl)phenyl)cyclopropanecarbonyl)cyclohexa-2,4-dienone]: 2.3 µg/mL (≈ 5.44 µM), 1.1 µg/mL (≈ 2.6 µM) and 1.4 µg/mL (≈ 3.31 µM).
The matching figures for `O=C(/C=C/c1ccc(Oc2ccc(F)cc2)cc1)c1c(O)cc(O)c(Cl)c1O` [Example 48, (E)-1-(3-chloro-2,4,6-trihydroxyphenyl)-3-(4-(4-fluorophenoxy)phenyl)prop-2-en-1-one]: > 40 µg/mL, 20 µg/mL (≈ 49.9 µM) and > 40 µg/mL.
For `CC1=C(O)C(C)(C)C(=O)C(C(=O)CCc2ccc(Oc3ccc(F)cc3)cc2)=C1O` [Example 78, 2-(3-(4-(4-fluorophenoxy)phenyl)propanoyl)-3,5-dihydroxy-4,6,6-trimethylcyclohexa-2,4-dienone], in that order: > 40 µg/mL, 6.5 µg/mL (≈ 15.8 µM) and > 40 µg/mL.
Consider `CCCC1=C(O)C(CCC)(CCC)C(=O)C(C(=O)CCc2ccc(Oc3ccc(F)cc3)cc2)=C1O` [Example 64, 2-(3-(4-(4-fluorophenoxy)phenyl)propanoyl)-3,5-dihydroxy-4,6,6-tripropylcyclohexa-2,4-dienone], for which the MIC in assay [1] stood at 0.34 µg/mL (≈ 0.687 µM); in assay [2], 0.34 µg/mL (≈ 0.687 µM); in assay [3] it was 0.26 µg/mL (≈ 0.526 µM).
On to `CCC1=C(O)C(CC)(CC)C(=O)C(C(=O)C2CC2c2ccc(C(F)(F)F)cc2C(F)(F)F)=C1O` (stereo not drawn) [Example 87, 2-(2-(2,4-bis(trifluoromethyl)phenyl)cyclopropanecarbonyl)-4,6,6-triethyl-3,5-dihydroxycyclohexa-2,4-dienone], for which the MIC was > 40 µg/mL in assay [1], 3.2 µg/mL (≈ 6.52 µM) in assay [2] and 5.9 µg/mL (≈ 12 µM) in assay [3].
`O=C(CCc1ccc(Oc2ccc(F)cc2)cc1C(F)(F)F)c1c(O)cc(O)cc1O` [Example 37, 3-(4-(4-fluorophenoxy)-2-(trifluoromethyl)phenyl)-1-(2,4,6-trihydroxyphenyl)propan-1-one]: the MIC in assay [1] stood at 4.4 µg/mL (≈ 10.1 µM); in assay [2] it was 2.4 µg/mL (≈ 5.5 µM); in assay [3], 3.5 µg/mL (≈ 8.02 µM).

The record behind these values is patent US10450292B2, “Inhibitors of bacterial RNA polymerase: arylpropanoyl, arylpropenoyl, and arylcyclopropanecarboxyl phloroglucinols” (Rutgers, The State University of New Jersey, priority 2015, dated 2019).
